From patent publication US7745475B2, “Heteroaryl benzamide derivatives as GLK activators” (AstraZeneca AB, priority 2004, dated 2010)
Each block holds one compound with its values, some of them ahead of it.

Assays:
[1] = target: T1, recombinant human pancreatic GLK (Homo sapiens, UniProt P35557); assay: biochemical
T1 sequence (P35557 1-465): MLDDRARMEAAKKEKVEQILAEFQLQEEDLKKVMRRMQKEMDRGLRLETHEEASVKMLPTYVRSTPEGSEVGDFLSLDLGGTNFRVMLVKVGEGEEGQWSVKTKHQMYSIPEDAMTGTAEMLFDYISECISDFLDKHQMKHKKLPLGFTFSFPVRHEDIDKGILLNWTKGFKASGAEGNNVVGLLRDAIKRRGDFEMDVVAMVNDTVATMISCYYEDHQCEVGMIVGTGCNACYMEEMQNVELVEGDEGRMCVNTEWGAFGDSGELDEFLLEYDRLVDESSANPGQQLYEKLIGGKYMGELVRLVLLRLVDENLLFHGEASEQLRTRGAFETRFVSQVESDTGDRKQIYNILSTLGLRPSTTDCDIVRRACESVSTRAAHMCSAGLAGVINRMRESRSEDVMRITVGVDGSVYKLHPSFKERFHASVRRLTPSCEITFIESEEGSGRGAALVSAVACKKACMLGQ

[2] = Oral exposure; assay type: in vivo; settings: compared with Example II107 in WO 03/015774
[3] = system: Zucker obese fa/fa rats; assay: Oral Glucose Tolerance Test (OGTT); assay type: in vivo, rat
Protocol: (2) Oral Glucose Tolerance Test (OGTT)
Oral glucose tolerance tests were done on conscious Zucker obese fa/fa rats (age 12-13 weeks or older) fed a high fat diet (45% kcal fat) for at least two weeks prior to experimentation. The animals were fasted for 2 hours before use for experiments. A test compound or a vehicle was given orally 120 minutes before oral administration of a glucose solution at a dose of 2 g/kg body weight. Blood glucose levels were measured using a Accucheck glucometer from tail bled samples taken at different time points before and after administration of glucose (time course of […]). A time curve of the blood glucose levels was generated and the area-under-the-curve (AUC) for 120 minutes was calculated (the time of glucose administration being time zero). Percent reduction in glucose excursion was determined using the AUC in the vehicle-control group as zero percent reduction.

[4] = target: T1, recombinant human pancreatic GLK; assay: Enzymatic activity of recombinant human pancreatic GLK (G-6-P dehydrogenase coupled, OD 340 nm); settings: comparison in words

Compound: Cc1nsc(NC(=O)c2cc(Oc3ccc(S(C)(=O)=O)cc3)cc(O[C@@H](C)CO)c2)n1 [Example 3a, 3-[(1S)-2-hydroxy-1-methylethoxy]-5-[4-(methylsulfonyl)phenoxy]-N-(3-methyl-1,2,4-thiadiazol-5-yl)benzamide]
EC50 [1]: 50 nM
oral exposure [2]: superior oral exposure
OGTT activity (percent reduction in glucose excursion, AUC vs vehicle) ([3]; 3 mg/kg, given orally): 17%
EC50 values, Example 3a compared with Example II107 in WO 03/015774 [4]: broadly similar

melting point: 142 °C
Compound: C[C@@H](CO)Oc1cc(Oc2ccc(C(=O)N3CCC3)cc2F)cc(C(=O)Nc2ccn(C)n2)c1 [Example 4, 3-[4-(Azetidin-1-ylcarbonyl)-2-fluorophenoxy]-5-[(1S)-2-hydroxy-1-methylethoxy]-N-(1-methyl-1H-pyrazol-3-yl)benzamide]

melting point: 124 °C
Compound: CCn1ccc(NC(=O)c2cc(Oc3ccc(C(=O)N4CCC4)cc3F)cc(O[C@@H](C)CO)c2)n1 [Example 9, 3-{[4-(Azetidin-1-ylcarbonyl)-2-fluorophenyl]oxy}-N-(1-ethyl-1H-pyrazol-3-yl)-5-{[(1S)-2-hydroxy-1-methylethyl]oxy}benzamide]

melting point: 173 to 175 °C
Compound: Cc1nsc(NC(=O)c2cc(Oc3ccc(C(=O)N4CCC4)cc3F)cc(O[C@@H](C)CO)c2)n1 [Example 27, 3-[4-(Azetidin-1-ylcarbonyl)-2-fluorophenoxy]-5-[(1S)-2-hydroxy-1-methylethoxy]-N-(3-methyl-1,2,4-thiadiazol-5-yl)benzamide]

Compound: Cc1cnc(NC(=O)c2cc(OCCc3ccsc3)cc(OC(C)C)c2)s1 [Example II107, reference compound]
OGTT activity ([3]; 10 mg/kg): not active

melting point: 126 to 132 °C
Compound: C[C@@H](CO)Oc1cc(Oc2ccc(S(C)(=O)=O)cc2)cc(C(=O)Nc2ccn(C)n2)c1 [compound 3, 3-[(1S)-2-Hydroxy-1-methylethoxy]-N-(1-methyl-1H-pyrazol-3-yl)-5-[4-(methylsulfonyl)phenoxy]benzamide]
